From patent US10730886B2, “Compound having effect of inhibiting platelet aggregation and salt thereof, and composition for preventing or treating thrombotic diseases, containing same” (SHIN POONG PHARMACEUTICAL CO., LTD., priority 2015, dated 2020)

Legend:
[1] = test system: collagen-induced platelet aggregation, Human PRP; experiment: Collagen-induced platelet aggregation in human PRP (lumi-aggregometer); type: cell-based; conditions: collagen 2-5 μg/ml
Experimental: To investigate whether the candidate substance has inhibition selectivity for shear-stress-induced platelet aggregation, which is by a physical stimulus, […] experiment was conducted by activating platelets with physiological agonists—i.e., thrombin, collagen and ADP—to study the inhibitory effect of the candidate substance.
Human PRP (598.8 μl) was treated with 1.2 μl of the candidate substance per concentration (25, 100, 250 μM) and reacted at 37° C. for 3 minutes using a thermomixer. Then, PRP (495 μl) was put in the aggregometer cuvette and preincubated for 1 minute, followed by treatment with platelet aggregation-inducing reagent, thrombin (0.6-0.8 U/ml), collagen (2-5 μg/ml), or ADP (adenosine diphosphate, 15-20 μM) at the minimum concentration causing maximum aggregation. The degree of aggregation of the platelets was measured by a turbidity change using a lumi-aggregometer (Chrono-Log Co., USA). The turbidity of the PRP was considered as 0%, and the turbidity of the PPP was considered as 100%. During the measurement, the reaction mixture was continuously stirred at 1,000 rpm with a silicone-coated magnetic stir bar.

[2] = test system: plasma; experiment: Plasma coagulation time, Prothrombin Time (PT); type: biochemical; conditions: plasma treated 3 minutes
Experimental: In order to separate plasma, blood was collected with 3.2% sodium citrate as an anticoagulant. Whole blood was centrifuged at 2000 g for 20 minutes to obtain plasma. After treating the plasma with the test substances for 3 minutes, plasma coagulation time was measured. For plasma coagulation time, Activated Partial Thromboplastin Time (aPTT) and Prothrombin Time (PT) were measured using BBL® Fibrometer (Becton Dickinson, Cockeysville, Md.). For measurement of aPTT, the plasma was treated with aPTT reagents in fibrometer cup and reacted at 37° C. for 3 min. After the reaction, CaCl2 was added and blood coagulation time was measured immediately. For the measurement of PT, PT reagent was added to warmed plasma, and blood coagulation time was measured immediately. DTI, known to prolong plasma coagulation time, was used as a control.

[3] = test system: Human Washed Platelets (WP); experiment: Shear stress-induced platelet aggregation inhibition in human washed platelets (WP); type: cell-based; conditions: for inhibited shear stress-induced platelet aggregation in WP: 10, 25, 50 μM; for inhibition at 10 µM / inhibition at 25 µM / inhibition at 50 µM: Platelet, human WP, read-out: Degree of inhibition (%, Mean ± SEM)
Experimental: 1-2. Measurement of Platelet Aggregation Inhibitory Effect Using Human Washed Platelets (WP)
To separate human washed platelets (WP), blood was collected from the veins of healthy males using acid-citrate-dextrose (ACD) as an anticoagulant. At the time of blood collection, platelet activation was inhibited by treatment with 1 μM of prostaglandin E1 (PGE1). The collected blood was centrifuged at 150 g for 15 minutes to obtain PRP from the supernatant, which was centrifuged at 500 g for 10 minutes to obtain platelets. The platelets were suspended in and washed with a washing buffer (134 mM NaCl, 2.9 mM KCl, 1.0 mM MgCl2.6H2O, 10.0 mM HEPES, 5.0 mM dextrose, 12.0 mM NaHCO3, 0.34 mM Na2HPO4, 10% ACD, 0.3% bovine serum albumin, 1 μM PGE1, pH 7.4), and then re-centrifuged at 400 g for 10 minutes. The platelets thus obtained were suspended in the suspension buffer. The number of platelets in WP were counted using a hemacytometer. The platelets were diluted with the suspension buffer so as to include 3×10^8 platelets per 1 ml, and CaCl2 was added to give a final concentration of 2 mM and then used in the experiments. vWF was added to WP to give a final concentration of 10 μg/ml. WP was put on a cone-plate viscometer, and shear stress was applied to the WP at 37° C. for 3 minutes at a shear rate of 10,800 s^−1. In order to evaluate efficacy of candidate substances, prior to the induction of platelet aggregation, WP was treated with 10, 25, and 50 μM of candidate substances and incubated at 37° C. for 3 minutes using a thermomixer. After applying the shear stress, 20 μl of WP was fixed in 280 μl of the suspension buffer containing 0.5% glutaraldehyde. Then, the number of single platelets in the suspension was counted using a hemacytometer. The degree of inhibition by the candidate substance was calculated according to formula (1). No shear stress-applied group served as control, and only shear stress-applied group served as a positive control.

[4] = test system: iron chloride (FeCl3)-induced thrombogenesis model; experiment: Arterial thrombosis model, FeCl3-induced carotid artery thrombogenesis; type: in vivo, Sprague-Dawley rats; conditions: rat, 25 mg/kg oral; for Time of thrombogenesis: FeCl3 applied 60 min after administration, occlusion time; for Fold (vs. Control): time of thrombogenesis vs. vehicle control
Experimental: Vehicle (DMSO: Tween 80: DW=1:2:17) or candidate substance (25 mg/kg) was orally administered to overnight-fasted male Sprague-Dawley rats (250 to 300 g). 30 minutes after administration, the rats were anesthetized by intraperitoneal injection of urethane (1.25 g/kg). The anesthetized animals were restrained on the operating table, and the body temperature was maintained using a heating pad during the entire operating procedure. An incision was made around the neck of the animals to carefully expose the right carotid artery, and the adipose tissues attached to the blood vessels were carefully removed. Doppler flow probe (0.5 mm-diameter, MA0.5PSB, Transonic System Inc., USA) was fixed to the exposed carotid artery, and a doppler flow-meter (TS420, Transonic System Inc., USA) was connected thereto. 60 minutes after oral administration, a piece of Whatman No. 1 filter paper (2 mm×1 mm) soaked with 50% FeCl3 solution was attached to the underlying blood vessels to which the probe was fixed. The filter paper was removed after 10 minutes, and the change of blood flow due to thrombus formation in the carotid artery was measured for 60 minutes after the time point of removal. The occlusion time was defined as the time at which the blood flow became zero more than one minute for the first time.

Row | Compound | Degree of platelet aggregation (%, Mean ± SEM) ([1]; 25 μM) [%] | Degree of platelet aggregation (%, Mean ± SEM) ([1]; 100 μM) [%] | Degree of platelet aggregation (%, Mean ± SEM) ([1]; 250 μM) [%] | plasma coagulation time - PT, Time ([2]; 25 μM) [s] | plasma coagulation time - PT, Time ([2]; 100 μM) [s] | plasma coagulation time - PT, Time ([2]; 250 μM) [s] | inhibited shear stress-induced platelet aggregation in WP [3] | inhibition at 10 µM [3] [%] | inhibition at 25 µM [3] [%] | inhibition at 50 µM [3] [%] | Time of thrombogenesis [4] [s] | Fold (vs. Control) [4]
1 | COc1cc(C(=O)N2CCc3sccc3C2)ccc1O [Example 12, (6,7-Dihydrothieno[3,2-c]pyridin-5(4H)-yl)(4-hydroxy-3-methoxyphenyl)methanone] | 83.0 ± 4.0 | 80.0 ± 2.0 | 87.5 ± 3.5 | 10.9 ± 0.1 | 11.0 ± 0.5 | 10.5 ± 0.3 | in a dose-dependent manner | 10 ± 2.1 | 30 ± 0.9 | 33 ± 2.1 | 665 ± 77 | 1.9
2 | COc1cc(C(=O)Oc2c(C)occc2=O)ccc1O [Example 14, 2-Methyl-4-oxo-4H-pyran-3-yl 4-hydroxy-3-methoxybenzoate] | 82.0 ± 1.7 | 80.0 ± 1.7 | 92.0 ± 2.0 | 10.1 ± 0.3 | 10.1 ± 0.0 | 11.1 ± 0.1 | in a dose-dependent manner | 8 ± 1.5 | 27 ± 2.3 | 39 ± 0.6 | 615 ± 54 | 1.7
3 | O=C(c1cc(O)ccc1O)N1CCc2sccc2C1 [Example 20, (6,7-Dihydrothieno[3,2-c]pyridin-5(4H)-yl)(2,5-dihydroxyphenyl)methanone] | 82.3 ± 5.8 | 81.3 ± 3.5 | 87.7 ± 2.0 | 10.8 ± 0.4 | 10.2 ± 0.4 | 11.2 ± 0.4 | in a dose-dependent manner | 18 ± 1.5 | 42 ± 4.2 | 46 ± 2.1 | 2122 ± 265 | 
4 | COc1ccc(NC(=O)c2ccc(O)c(OC)c2)c([N+](=O)[O-])c1 [Example 15, 4-Hydroxy-3-methoxy-N-(4-methoxy-2-nitrophenyl)benzamide] | 86.0 ± 0.0 | 84.5 ± 4.5 | 83.5 ± 3.5 | 10.7 ± 0.0 | 10.6 ± 0.2 | 10.9 ± 0.1 | in a dose-dependent manner | 14 ± 2.5 | 26 ± 4 | 36 ± 3.2 | 816 ± 78 | 2.3
5 | O=C(c1ccc(O)c(O)c1)N1CCc2sccc2C1 [Example 1, (6,7-Dihydrothieno[3,2-c]pyridin-5(4H)-yl)(3,4-dihydroxyphenyl)methanone] | 84.3 ± 3.5 | 80.7 ± 10.2 | 84.3 ± 3.8 | 10.8 ± 0.5 | 10.7 ± 0.8 | 11.0 ± 0.1 | in a dose-dependent manner | 4 ± 3.5 | 23 ± 1.2 | 27 ± 1.7 | 936 ± 120 | 
6 | CCc1occc(=O)c1OC(=O)c1ccc(O)c(OC)c1 [Example 13, 2-Ethyl-4-oxo-4H-pyran-3-yl 4-hydroxy-3-methoxybenzoate] | 90.0 ± 3.0 | 79.5 ± 0.5 | 85.5 ± 3.5 | 11.0 ± 0.3 | 10.6 ± 0.2 | 10.8 ± 0.3 | in a dose-dependent manner | 12 ± 3.8 | 29 ± 4.1 | 34 ± 2.7 | 752 ± 69 | 2.1
7 | O=C(c1cc(O)ccc1O)N1CCC(c2noc3ccc(F)cc23)CC1 [Example 23, (2,5-Dihydroxyphenyl)(4-(5-fluorobenzo[d]isoxazol-3-yl)piperidin-1-yl)methanone] | 82.0 ± 5.0 | 84.5 ± 4.5 | 83.5 ± 2.5 | 10.3 ± 0.1 | 10.7 ± 0.2 | 10.8 ± 0.3 |  |  |  |  | 674 ± 92 | 1.9
